One test has as its target SUMO-activating enzyme (Homo sapiens, UniProt Q9UBT2). Briefly: SUMOylation inhibitor hit validation, confirmation, SUMOylation inhibitor project, biochemical, AlphaScreen (AID 2018). The class given is functional.
The next test has as its target T1, Hexokinase-1 (Homo sapiens, UniProt P19367).
T1 sequence (P19367 whole entry): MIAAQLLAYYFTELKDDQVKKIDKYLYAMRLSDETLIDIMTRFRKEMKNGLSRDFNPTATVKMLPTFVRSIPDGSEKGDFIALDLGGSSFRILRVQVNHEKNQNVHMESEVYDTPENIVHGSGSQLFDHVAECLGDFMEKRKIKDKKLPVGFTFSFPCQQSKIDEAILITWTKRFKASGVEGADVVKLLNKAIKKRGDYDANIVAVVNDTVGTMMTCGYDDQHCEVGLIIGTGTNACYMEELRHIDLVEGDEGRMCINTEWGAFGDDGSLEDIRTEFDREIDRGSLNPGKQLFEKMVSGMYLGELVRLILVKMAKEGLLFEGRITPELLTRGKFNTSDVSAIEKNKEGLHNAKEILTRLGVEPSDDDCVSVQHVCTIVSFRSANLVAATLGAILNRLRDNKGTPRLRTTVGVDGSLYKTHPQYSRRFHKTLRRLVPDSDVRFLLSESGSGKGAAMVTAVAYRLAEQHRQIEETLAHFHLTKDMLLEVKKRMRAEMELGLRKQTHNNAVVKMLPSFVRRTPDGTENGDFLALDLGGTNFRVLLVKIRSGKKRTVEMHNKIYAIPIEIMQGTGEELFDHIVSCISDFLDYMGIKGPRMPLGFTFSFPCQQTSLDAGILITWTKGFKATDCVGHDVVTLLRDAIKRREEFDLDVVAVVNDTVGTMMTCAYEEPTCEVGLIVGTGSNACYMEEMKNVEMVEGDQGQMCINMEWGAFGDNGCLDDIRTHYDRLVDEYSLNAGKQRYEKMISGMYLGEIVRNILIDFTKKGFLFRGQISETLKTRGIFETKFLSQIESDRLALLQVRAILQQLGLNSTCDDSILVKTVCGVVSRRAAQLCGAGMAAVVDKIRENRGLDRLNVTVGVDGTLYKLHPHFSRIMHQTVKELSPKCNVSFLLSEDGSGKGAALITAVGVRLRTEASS
Briefly: HK1 enzyme inhibition by HKDC1 hits, SAR follow-up, selectivity assay for HKDC1 inhibitor project, biochemical, set 2, resazurin fluorescence coupled readout (AID 588356). The class given is functional.

For test [1], the target named is T2, Zinc finger protein mex-5 (Caenorhabditis elegans, UniProt Q9XUB2).
T2 sequence (Q9XUB2 whole entry): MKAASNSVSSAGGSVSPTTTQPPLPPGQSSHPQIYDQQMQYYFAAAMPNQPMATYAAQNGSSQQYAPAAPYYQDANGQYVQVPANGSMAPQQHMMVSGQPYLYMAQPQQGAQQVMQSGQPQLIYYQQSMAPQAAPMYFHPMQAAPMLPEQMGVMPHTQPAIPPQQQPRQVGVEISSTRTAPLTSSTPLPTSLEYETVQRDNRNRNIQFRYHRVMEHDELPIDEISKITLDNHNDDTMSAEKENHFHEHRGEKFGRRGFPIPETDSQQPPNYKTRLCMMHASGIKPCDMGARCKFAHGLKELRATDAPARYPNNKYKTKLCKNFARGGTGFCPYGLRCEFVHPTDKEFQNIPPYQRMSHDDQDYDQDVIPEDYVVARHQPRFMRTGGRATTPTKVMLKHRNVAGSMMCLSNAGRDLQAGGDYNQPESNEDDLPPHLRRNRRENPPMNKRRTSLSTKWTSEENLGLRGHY
Briefly: MEX-5/TCR-2 RNA interaction inhibitors, dose response, biochemical, C. elegans, fluorescence polarization (AID 1960). (In general: Polarisation of emitted light reports the rotation of a fluorescent probe.)

The target of the next test is Troponin, cardiac muscle (Homo sapiens, UniProt P19429+P45379+P63316). Briefly: inhibitors of cardiac thin filament calcium sensitivity, dose response, biochemical, fluorescence, cardiac regulated thin filaments, triplicate IC50 (AID 504742). The class given is protein-complex assay.
The target in test [2] is Intestinal-type alkaline phosphatase (Homo sapiens, UniProt P09923). Briefly: Dose Response confirmation of uHTS hits from a small molecule inhibitors of human intestinal alkaline phosphatase via a luminescent assay. [Related pubchem assays (depositor defined):AID2544, AID2574]. It is filed as functional.
Intestinal-type alkaline phosphatase, sequence (P09923 whole entry): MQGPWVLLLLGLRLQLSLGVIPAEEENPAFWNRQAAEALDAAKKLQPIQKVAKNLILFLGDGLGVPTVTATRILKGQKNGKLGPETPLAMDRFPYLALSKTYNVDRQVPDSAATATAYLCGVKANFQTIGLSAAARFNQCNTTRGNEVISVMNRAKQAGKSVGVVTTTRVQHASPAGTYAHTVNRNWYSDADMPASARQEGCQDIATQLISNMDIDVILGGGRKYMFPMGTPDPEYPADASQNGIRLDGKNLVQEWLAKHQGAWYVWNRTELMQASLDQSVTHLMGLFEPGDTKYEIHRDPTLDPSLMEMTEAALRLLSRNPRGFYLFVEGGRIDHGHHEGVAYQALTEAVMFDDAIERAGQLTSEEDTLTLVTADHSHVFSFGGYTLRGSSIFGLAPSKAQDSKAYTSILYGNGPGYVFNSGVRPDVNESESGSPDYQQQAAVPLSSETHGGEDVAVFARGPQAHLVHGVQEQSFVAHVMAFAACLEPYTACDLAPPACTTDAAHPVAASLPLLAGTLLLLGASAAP
The next test concerns the target Nonstructural protein 1 (Influenza A virus, UniProt Q194T2). The class given is functional, Influenza A virus (A/California/07/2009(H1N1)).
Test [3] has as its target cGMP-dependent protein kinase 1 (Homo sapiens, UniProt Q13976). The class given is functional.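 Also: value from a kinome panel screen with PRKG1 as the panel member.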
Test [4] has as its target Phosphorylase b kinase gamma catalytic chain, liver/testis isoform (Homo sapiens, UniProt P15735). The class given is functional.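 Also: PHKG2 measured as one member of a kinome-wide kinase panel.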
Test [5] concerns the target Proto-oncogene tyrosine-protein kinase receptor Ret (Homo sapiens, UniProt P07949). It is filed as functional.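 Also: measured within a kinome-wide profiling panel, RET as the panel member.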
The target in test [6] is Calcium/calmodulin-dependent protein kinase type II subunit gamma (Homo sapiens, UniProt Q13555). The class given is functional.
Calcium/calmodulin-dependent protein kinase type II subunit gamma, sequence (Q13555 whole entry): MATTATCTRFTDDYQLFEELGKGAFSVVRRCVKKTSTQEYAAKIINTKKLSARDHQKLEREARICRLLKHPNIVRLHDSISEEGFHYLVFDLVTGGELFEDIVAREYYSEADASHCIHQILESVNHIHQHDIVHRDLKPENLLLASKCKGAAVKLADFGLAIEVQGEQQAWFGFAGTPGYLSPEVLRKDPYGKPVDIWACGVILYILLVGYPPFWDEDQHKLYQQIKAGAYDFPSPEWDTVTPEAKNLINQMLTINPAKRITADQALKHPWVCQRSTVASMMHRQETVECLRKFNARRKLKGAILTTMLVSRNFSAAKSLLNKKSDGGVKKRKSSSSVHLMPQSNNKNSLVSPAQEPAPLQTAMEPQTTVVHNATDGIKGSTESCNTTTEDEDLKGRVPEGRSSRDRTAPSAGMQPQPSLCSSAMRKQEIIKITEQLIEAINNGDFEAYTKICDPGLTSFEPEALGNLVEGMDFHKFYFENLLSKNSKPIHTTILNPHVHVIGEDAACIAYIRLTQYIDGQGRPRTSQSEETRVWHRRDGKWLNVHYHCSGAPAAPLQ
Test [7] addresses Tyrosine-protein kinase SYK (Homo sapiens, UniProt P43405). It is filed as functional.
Test [8] concerns the target Serine/threonine-protein kinase N2 (Homo sapiens, UniProt Q16513). It is filed as functional.
The target of test [9] is Receptor-type tyrosine-protein kinase FLT3 (Homo sapiens, UniProt P36888). The class given is functional.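 Also: FLT3 was tested as one member of a kinome-wide kinase panel.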
The next test has as its target Focal adhesion kinase 1 (Homo sapiens, UniProt Q05397). It is filed as functional.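 Also: measured as one member of a kinome panel.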
The target in another test is Aurora kinase B (Homo sapiens, UniProt Q96GD4). The class given is functional.
Test [10] concerns the target Calcium/calmodulin-dependent protein kinase type 1 (Homo sapiens, UniProt Q14012). It is filed as functional.
Test [11] has as its target 3-phosphoinositide-dependent protein kinase 1 (Homo sapiens, UniProt O15530). The class given is functional.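 Also: value comes from the Navigating the Kinome panel, PDPK1 member.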
Test [12] has as its target Glycogen synthase kinase-3 beta (Homo sapiens, UniProt P49841). It is filed as functional.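 Also: value comes from a broad kinome profiling panel, with GSK3B as the panel member.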
Test [13] has as its target Lymphokine-activated killer T-cell-originated protein kinase (Homo sapiens, UniProt Q96KB5). It is filed as functional.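 Also: value comes from a kinase panel screen in which TOPK was one of the panel members.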
In test [14] the target is Serine/threonine-protein kinase BRSK1 (Homo sapiens, UniProt Q8TDC3). It is filed as functional.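 Also: measured within a kinome-wide kinase panel, with the target listed as KIAA1811.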
Serine/threonine-protein kinase BRSK1, sequence (Q8TDC3 whole entry): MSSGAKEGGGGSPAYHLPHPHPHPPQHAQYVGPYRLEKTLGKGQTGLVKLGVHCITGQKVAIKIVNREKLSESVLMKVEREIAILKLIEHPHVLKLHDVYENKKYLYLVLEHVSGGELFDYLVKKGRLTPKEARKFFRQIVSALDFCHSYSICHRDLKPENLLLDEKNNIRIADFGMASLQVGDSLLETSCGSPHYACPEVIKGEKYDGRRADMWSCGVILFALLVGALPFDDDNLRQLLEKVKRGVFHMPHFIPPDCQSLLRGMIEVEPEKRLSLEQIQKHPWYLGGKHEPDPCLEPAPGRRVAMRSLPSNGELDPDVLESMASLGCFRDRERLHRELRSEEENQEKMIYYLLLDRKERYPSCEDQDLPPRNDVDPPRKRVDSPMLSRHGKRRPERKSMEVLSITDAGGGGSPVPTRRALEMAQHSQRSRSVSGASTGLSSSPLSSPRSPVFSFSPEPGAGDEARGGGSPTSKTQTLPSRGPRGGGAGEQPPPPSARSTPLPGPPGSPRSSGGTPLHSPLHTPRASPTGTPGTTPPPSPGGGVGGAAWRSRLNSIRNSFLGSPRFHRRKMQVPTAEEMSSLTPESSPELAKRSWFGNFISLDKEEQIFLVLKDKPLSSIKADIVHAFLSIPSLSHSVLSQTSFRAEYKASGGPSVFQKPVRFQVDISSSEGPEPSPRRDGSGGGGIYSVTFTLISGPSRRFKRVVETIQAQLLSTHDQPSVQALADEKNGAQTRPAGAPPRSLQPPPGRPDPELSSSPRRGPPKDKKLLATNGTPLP

The source made the active and inactive calls.

Calcium/calmodulin-dependent protein kinase type 1, sequence (Q14012 whole entry): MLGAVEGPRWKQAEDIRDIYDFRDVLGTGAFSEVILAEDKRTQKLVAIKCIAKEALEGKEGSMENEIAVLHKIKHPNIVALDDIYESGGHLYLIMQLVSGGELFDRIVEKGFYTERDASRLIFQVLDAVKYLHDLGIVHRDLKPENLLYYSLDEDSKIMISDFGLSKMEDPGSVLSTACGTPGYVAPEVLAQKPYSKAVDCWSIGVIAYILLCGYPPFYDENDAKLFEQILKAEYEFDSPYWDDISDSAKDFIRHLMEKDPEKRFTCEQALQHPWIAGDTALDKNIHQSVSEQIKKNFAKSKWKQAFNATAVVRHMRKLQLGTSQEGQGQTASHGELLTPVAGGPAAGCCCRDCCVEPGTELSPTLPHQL
Glycogen synthase kinase-3 beta, sequence (P49841 whole entry): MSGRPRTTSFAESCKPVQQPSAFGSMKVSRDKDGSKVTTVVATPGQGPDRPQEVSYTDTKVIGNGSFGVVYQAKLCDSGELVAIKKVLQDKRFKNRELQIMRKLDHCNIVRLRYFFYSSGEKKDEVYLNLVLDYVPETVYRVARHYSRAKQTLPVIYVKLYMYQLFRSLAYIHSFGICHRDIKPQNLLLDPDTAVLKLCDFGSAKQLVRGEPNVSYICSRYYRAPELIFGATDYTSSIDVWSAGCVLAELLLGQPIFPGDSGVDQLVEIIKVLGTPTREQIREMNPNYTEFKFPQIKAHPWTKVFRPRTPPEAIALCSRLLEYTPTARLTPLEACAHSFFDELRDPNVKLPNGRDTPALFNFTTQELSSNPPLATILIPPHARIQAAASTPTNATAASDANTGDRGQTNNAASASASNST
Proto-oncogene tyrosine-protein kinase receptor Ret, sequence (P07949 whole entry): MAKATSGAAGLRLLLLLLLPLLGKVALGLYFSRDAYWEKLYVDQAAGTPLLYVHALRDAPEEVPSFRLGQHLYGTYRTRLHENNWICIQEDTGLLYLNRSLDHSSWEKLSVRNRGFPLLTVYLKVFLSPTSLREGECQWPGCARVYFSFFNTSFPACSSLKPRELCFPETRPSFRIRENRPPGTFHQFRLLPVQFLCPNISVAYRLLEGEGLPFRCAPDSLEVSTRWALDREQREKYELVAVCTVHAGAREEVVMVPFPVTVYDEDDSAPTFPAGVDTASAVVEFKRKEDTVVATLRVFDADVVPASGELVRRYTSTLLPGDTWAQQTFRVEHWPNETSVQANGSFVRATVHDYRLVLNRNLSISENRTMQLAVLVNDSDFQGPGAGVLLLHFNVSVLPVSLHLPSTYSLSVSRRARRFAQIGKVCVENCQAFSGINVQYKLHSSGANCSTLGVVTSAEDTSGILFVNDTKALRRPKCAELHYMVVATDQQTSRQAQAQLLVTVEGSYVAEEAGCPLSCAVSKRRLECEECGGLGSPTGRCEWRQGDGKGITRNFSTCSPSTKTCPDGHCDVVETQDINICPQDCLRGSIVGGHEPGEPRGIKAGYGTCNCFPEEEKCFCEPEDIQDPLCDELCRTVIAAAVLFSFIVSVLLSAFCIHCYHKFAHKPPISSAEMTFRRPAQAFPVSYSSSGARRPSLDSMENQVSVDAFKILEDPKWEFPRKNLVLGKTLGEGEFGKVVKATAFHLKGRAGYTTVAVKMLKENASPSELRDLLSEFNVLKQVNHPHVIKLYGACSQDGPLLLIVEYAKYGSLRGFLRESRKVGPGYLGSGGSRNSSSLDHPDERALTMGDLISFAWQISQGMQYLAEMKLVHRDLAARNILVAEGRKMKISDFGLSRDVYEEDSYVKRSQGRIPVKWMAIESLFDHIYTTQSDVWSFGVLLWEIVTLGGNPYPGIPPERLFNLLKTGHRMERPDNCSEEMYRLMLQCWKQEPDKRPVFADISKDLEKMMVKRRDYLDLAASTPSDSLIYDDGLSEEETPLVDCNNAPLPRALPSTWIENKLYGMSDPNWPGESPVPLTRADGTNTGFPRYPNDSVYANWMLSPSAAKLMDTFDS
Serine/threonine-protein kinase N2, sequence (Q16513 whole entry): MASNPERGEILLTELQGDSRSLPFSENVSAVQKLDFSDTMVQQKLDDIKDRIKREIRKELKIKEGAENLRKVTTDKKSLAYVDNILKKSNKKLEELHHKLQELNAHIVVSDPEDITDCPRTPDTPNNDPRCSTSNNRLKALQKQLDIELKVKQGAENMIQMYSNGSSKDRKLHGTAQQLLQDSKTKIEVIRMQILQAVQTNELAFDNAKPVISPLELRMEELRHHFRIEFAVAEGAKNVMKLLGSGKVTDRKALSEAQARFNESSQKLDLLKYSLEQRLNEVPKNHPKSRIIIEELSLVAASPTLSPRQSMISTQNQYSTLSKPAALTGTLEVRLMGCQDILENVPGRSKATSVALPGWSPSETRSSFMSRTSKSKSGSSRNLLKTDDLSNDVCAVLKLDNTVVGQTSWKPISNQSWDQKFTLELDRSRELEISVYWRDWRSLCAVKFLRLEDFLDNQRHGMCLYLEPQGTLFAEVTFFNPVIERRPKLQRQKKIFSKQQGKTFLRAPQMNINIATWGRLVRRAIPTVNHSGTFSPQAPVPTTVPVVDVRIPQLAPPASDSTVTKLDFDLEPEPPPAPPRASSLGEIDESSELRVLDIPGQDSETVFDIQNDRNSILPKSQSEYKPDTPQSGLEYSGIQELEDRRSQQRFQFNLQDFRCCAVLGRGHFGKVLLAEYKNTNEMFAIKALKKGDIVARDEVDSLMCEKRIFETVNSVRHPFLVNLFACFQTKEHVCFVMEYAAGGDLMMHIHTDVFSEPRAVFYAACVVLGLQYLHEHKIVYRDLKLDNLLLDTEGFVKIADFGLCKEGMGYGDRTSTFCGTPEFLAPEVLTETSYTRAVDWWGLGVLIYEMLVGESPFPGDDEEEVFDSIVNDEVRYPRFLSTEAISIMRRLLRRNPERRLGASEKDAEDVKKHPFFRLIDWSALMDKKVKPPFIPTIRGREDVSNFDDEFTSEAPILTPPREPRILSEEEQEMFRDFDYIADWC
Nonstructural protein 1, sequence (Q194T2 whole entry): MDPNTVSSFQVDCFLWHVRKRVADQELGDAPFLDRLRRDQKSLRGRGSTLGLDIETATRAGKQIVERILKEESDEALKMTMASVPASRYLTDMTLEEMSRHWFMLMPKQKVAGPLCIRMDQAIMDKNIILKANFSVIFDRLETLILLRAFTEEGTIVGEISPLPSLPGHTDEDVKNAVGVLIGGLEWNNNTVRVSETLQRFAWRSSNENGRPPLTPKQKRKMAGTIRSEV

As a reminder, the IC50 is the midpoint of a concentration-inhibition curve. Regarding `CC(=O)NC1C(=O)N(CCN2CCOCC2)c2ccc(F)cc21` (configuration not stated), the IC50 at SUMO-activating enzyme was 5820 nM (active); on Hexokinase-1 it was > 80000 nM (inactive).

What is called EC50 is the concentration giving half of the maximal effect. On to `O=C(O)C1Nc2c(O)cc(Cl)c([N+](=O)[O-])c2C2C=CCC12` (configuration not stated), for which the EC50 in test [1] was 19100 nM (inconclusive). Moreover, the IC50 at Troponin, cardiac muscle is 11000 nM (inactive).

Take `Oc1ccc(N=Nc2c(O)ccc3ccccc23)cc1`: the IC50 in test [2] is 17700 nM (inactive); at Nonstructural protein 1, 17500 nM (active).

As a reminder, the Ki is the dissociation constant of the complex between target and ligand, obtained from inhibition or displacement. In general, pKi refers to the Ki on a negative log10 scale, so that one unit is a factor of ten. Consider `Cc1n[nH]c2ccc(-c3cncc(OCC(N)Cc4cccc(Cl)c4)c3)cc12` (configuration not stated), for which the Ki in [3] was 10 nM (active); in test [4], 794 nM (active); in test [5], 1000 nM (active); in test [6], 3.98 nM (active); in test [7], > 1580 nM (inactive); in test [8], 15.8 nM (active). The Ki in test [9] was 158 nM (active); at Focal adhesion kinase 1, > 1580 nM (inactive); on Aurora kinase B, 200 nM (active); in test [10], 100 nM (active); in test [11], 2000 nM (active); in test [12], 15.8 nM (active). In addition, the Ki is 2510 nM (active) in [13] and 1580 nM (active) in [14]. The negative-log Ki (pKi) in [6] worked out at 8.4; in test [10], 7.
